Measured values published in patent US9221800B2, “Isoxazole treatments for diabetes” (The Board of Regents of the University of Texas System, priority 2011, dated 2015).

Columns and labels:
[1] = tested on: insulin gene promoter; test: ChIP analysis of association with the insulin promoter in MIN6 cells; type: cell-based, mouse
Protocol: ChIP was as described (Lawrence et al., 2008) with the following modifications. Chromatin was cross-linked with 1% formaldehyde and sonicated with a Bioruptor 200 (Diagenode) in an ice cold water bath. Antibodies immobilized on protein A-Sepharose beads were used for immunoprecipitation. ChIP products were analyzed by real-time Q-PCR as previously described for real-time PCR analysis (Lawrence et al., 2008) using the following primers (5′-CAGACCTAGCACCAGGG-3′ (SEQ ID NO:1) and 5′-GGACTTTGCTGTTTGTCCC-3′ (SEQ ID NO:2)) to amplify the −157/−50 fragment of the mouse insulin promoter encompassing the C1 (MafA), E1 (BETA2) and A1 (PDX-1) binding sites. The results were expressed relative to input and presented as mean+/− SEM of at least two independent experiments in triplicate.

[2] = tested on: human islets; test: Insulin secretion and insulin content (ELISA) of cultured human islets; type: cell-based
Protocol: FIGS. 1A-E. Isx (LSH-1) induces expression of insulin and transcription factors in primary cultured human islets. (FIG. 1A) Primary human islets that had been cultured in RPMI 160 for 6 months were treated with vehicle or 40 μM Isx for 1 or 2 d. Expression of human insulin and glucagon genes was assessed by Taqman quantitative RT-PCR. (FIG. 1B) Insulin secretion measured by ELISA over 24 h from islets treated with Isx or vehicle for 1 or 2 d. (FIG. 1C) Total insulin content of islets cultured for 3 mo and fresh islets, each treated for 48 h with Isx or DMSO. (FIG. 1D) Time course of pancreatic gene induction in islets cultured for 1 year treated with DMSO (8 days) or 40 μM Isx for 2, 4 or 8 days. (FIG. 1E) Immunohistochemical staining using antibodies against insulin, BETA2, Neurogenin3 (Ngn3) and MafA of islets cultured for 2 months and treated with Isx or vehicle for 48 h. Nuclei were stained with DAPI.
FIGS. 5A-E. Gene expression induced by Isx (LSH-1) in human islet cultures. (FIG. 5A) Structure of the lead compound N-cyclopropyl-5-(thiophen-2-yl)isoxazole-3-carboxamide (Isx) used in this study. (FIG. 5B) Expression profiles of relevant islet factors by Sybr-Green qPCR analyses from human islets cultured for 1 year as in FIG. 1D. (FIG. 5C) Insulin immunohistochemical staining in human islets cultured for 2 months. Nuclei are stained with DAPI. (FIG. 5D) Immunoblotting of whole cell extracts from human islets cultured for six months treated with vehicle (DMSO) or Isx for 24 h. (FIG. 5E) Human islets cultured for 6 months were treated with DMSO (Veh) or Isx for 48 h. To implicate signaling pathways that are required for the isoxazole-driven increase in β cell function, measured as GSIS, the isoxazole-treated islets were also treated with vehicle (Veh), 10 μM U0126 (U), 10 μM Nifedipine-BAPTA (N-B), or 0.1 μM wortmannin (W) for the duration of the isoxazole treatment.
MIN6 cells were cultured in DMEM (Gibco), containing 25 mM glucose, 10% fetal bovine serum, 10 mM Hepes pH 7.4, 10.2 mM L-glutamine, […] sodium pyruvate, 2.5 mM β-mercaptoethanol, 100 U/ml penicillin and 100 μg/ml streptomycin at 37° C. in 10% CO2. Human islets were obtained from the ICR Basic Science Islet Distribution and from the University of Alabama, Birmingham Islet Resource Facility and were cultured in RPMI 1640 with 11 mM glucose for up to 1 year. The medium was changed twice weekly and the islets were subcultured when they reached 90% confluence. For Isx treatments, cells were incubated in medium containing either Isx or the equivalent volume of DMSO vehicle (0.04%). […]

[3] = molecular target: T1, CBP (Homo sapiens, UniProt Q92793); test: HAT activity of HATs expressed in 293 cells; type: cell-based; conditions: combination of ERK2 expression and Isx, 24 h (FIG. 8)
T1 construct: expressed in transfected cells; host or cells: HEK293
T1 sequence (Q92793 whole entry): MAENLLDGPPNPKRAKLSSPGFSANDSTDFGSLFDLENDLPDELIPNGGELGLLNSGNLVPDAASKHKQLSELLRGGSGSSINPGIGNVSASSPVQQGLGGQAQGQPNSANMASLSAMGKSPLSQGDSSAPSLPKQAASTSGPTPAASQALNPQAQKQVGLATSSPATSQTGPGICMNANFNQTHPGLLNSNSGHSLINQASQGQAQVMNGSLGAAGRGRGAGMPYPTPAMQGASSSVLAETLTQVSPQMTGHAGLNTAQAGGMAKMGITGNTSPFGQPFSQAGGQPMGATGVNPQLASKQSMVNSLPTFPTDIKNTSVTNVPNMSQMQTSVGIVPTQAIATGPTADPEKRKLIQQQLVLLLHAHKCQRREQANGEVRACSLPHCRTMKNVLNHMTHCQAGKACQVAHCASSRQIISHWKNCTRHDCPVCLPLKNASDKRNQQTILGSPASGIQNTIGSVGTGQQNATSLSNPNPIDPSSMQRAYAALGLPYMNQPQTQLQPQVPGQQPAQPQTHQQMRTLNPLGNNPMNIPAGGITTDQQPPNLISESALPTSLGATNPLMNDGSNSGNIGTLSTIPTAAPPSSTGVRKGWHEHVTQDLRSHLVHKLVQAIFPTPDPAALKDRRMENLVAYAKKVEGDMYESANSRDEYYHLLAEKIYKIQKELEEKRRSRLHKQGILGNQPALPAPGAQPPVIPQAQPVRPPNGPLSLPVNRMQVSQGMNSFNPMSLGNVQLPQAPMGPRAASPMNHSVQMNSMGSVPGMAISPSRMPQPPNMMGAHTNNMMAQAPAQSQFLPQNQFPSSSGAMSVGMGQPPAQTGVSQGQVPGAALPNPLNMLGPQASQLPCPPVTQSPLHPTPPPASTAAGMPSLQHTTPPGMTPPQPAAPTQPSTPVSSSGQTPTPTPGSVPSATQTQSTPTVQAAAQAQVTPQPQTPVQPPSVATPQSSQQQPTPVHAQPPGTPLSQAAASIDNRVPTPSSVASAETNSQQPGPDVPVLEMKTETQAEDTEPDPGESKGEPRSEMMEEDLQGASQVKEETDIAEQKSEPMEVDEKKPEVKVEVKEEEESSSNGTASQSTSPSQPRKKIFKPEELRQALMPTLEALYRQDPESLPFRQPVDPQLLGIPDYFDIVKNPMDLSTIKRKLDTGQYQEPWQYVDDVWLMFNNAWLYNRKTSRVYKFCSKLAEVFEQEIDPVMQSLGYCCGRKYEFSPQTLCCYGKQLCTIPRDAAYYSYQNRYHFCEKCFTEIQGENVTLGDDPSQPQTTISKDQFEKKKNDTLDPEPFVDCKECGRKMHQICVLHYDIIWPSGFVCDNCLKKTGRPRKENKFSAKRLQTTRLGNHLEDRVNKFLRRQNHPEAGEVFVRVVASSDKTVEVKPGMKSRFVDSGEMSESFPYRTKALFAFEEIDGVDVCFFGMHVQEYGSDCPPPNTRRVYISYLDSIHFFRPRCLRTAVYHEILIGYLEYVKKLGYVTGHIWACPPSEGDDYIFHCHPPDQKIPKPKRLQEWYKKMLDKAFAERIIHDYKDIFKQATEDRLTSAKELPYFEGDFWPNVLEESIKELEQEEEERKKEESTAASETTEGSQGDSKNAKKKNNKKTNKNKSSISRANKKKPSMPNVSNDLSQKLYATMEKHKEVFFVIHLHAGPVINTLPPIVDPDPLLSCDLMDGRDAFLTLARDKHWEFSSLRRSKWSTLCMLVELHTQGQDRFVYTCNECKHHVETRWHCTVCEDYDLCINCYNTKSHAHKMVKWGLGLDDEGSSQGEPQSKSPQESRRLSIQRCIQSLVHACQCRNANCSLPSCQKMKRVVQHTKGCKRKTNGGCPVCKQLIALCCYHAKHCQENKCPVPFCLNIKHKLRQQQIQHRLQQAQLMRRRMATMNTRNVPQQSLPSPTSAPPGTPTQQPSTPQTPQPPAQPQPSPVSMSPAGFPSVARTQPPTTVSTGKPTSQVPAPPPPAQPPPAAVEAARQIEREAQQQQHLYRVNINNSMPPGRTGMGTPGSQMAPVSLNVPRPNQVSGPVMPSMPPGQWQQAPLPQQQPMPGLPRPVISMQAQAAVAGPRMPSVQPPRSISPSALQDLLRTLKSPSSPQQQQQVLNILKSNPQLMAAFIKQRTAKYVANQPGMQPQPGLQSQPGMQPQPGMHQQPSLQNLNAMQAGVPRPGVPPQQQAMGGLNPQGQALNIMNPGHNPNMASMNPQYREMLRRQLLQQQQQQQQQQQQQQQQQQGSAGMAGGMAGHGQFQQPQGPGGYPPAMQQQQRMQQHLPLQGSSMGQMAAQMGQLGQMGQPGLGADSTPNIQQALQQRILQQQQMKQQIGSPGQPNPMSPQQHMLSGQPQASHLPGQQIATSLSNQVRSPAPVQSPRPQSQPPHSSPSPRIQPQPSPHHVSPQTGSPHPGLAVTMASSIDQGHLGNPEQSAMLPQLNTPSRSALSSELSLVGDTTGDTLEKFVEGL
Protocol: (FIG. 8A) Combined effect of Isx treatment for 24 h and WT ERK2 (W) or kinase dead K52R ERK2 (R) on the HAT activities of p300, and (FIG. 8B) other HATs, CBP, PCAF and GCN5-L2, transfected in HEK293 cells.

[4] = tested on: rat insulin 1 promoter-luciferase reporter (pGL3-rIns -410, +1); test: Insulin promoter luciferase reporter assay in HEK293 cells; type: cell-based
Protocol: HEK 293 cells (0.15×10^6 cells) in triplicate were transfected with the pGL3-rIns reporter construct (0.1 μg/well) (Stratagene) and cotransfected with 0.5 μg/well of either empty vector (pcDNA3.1) or vectors encoding BETA2:myc, MafA:myc or PDX-1:myc using Lipofectamine 2000 (Invitrogen). After 24 h, cells were stimulated with 20 μM Isx or DMSO for another 24 h. Luciferase activity was measured using the dual luciferase reporter system (Promega) with Renilla Luciferase as an internal control.

[5] = tested on: HDAC; test: HDAC activity in nuclear extracts of treated MIN6 cells; type: cell-based, mouse; conditions: 24 h treatment, TSA 2 μM positive control (FIG. 4B)
Protocol: (§1) The histone acetyl transferase and deacetylase activities were measured in 50 μg of nuclear protein using the HAT and HDAC activity colorimetric assay kits from Biovision Biotechnology according to manufacturer's recommendations.

[6] = tested on: MIN6 cells; test: Insulin secretion (GSIS) and insulin content in MIN6 cells; type: cell-based, mouse
Protocol: MIN6 cells were cultured in DMEM (Gibco), containing 25 mM glucose, 10% fetal bovine serum, 10 mM Hepes pH 7.4, 10.2 mM L-glutamine, […] sodium pyruvate, 2.5 mM β-mercaptoethanol, 100 U/ml penicillin and 100 μg/ml streptomycin at 37° C. in 10% CO2. Human islets were obtained from the ICR Basic Science Islet Distribution and from the University of Alabama, Birmingham Islet Resource Facility and were cultured in RPMI 1640 with 11 mM glucose for up to 1 year. The medium was changed twice weekly and the islets were subcultured when they reached 90% confluence. For Isx treatments, cells were incubated in medium containing either Isx or the equivalent volume of DMSO vehicle (0.04%). To measure GSIS, cells were placed in Krebs-Ringer bicarbonate/Hepes containing 0.1% bovine serum albumin and 2 mM glucose for 2 h, and stimulated for 15 min with 20 mM glucose, a 1× amino-acid mixture (concentrations as in DMEM), or 50 nM Exendin-4. U0126 (10 μM), nifedipine (3 μM), BAPTA (10 μM), wortmanin (0.5 μM) or FK506 (0.1 μM) were added for 1-24 h as indicated.

[7] = tested on: HAT; test: HAT activity in nuclear extracts of treated MIN6 cells; type: cell-based, mouse
Protocol: as §1

O=C(NC1CC1)c1cc(-c2cccs2)on1 [Isx, N-cyclopropyl-5-(thiophen-2-yl)isoxazole-3-carboxamide]
Chromatin recruitment of p300 to the insulin promoter upon stimulation by glucose ([1]; Isx pretreatment 24 h): increased
chromatin binding of BETA2 and MafA to the insulin gene promoter ([1]; compared with glucose stimulation (FIGS. 3D-E)): Comparable or greater
increase of insulin content of fresh islets ([2]; 2-day exposure to Isx): ~25%
Insulin content relative to the insulin content of islets isolated only 1 week earlier ([2]; 3 month-old islets treated with Isx (FIG. 1C)): ~75%
Insulin content increase ([2]; 3 month-old islets, Isx 48 h (FIG. 1C)): ~10 fold
Insulin secreted over a 24-h period ([2]; human islets in culture for 6 months, Isx 1 or 2 d (FIG. 1B)): markedly increased
CBP HAT activity [3]: increased
increase of the activity of PDX-1 (insulin gene reporter) by Isx ([4]; 20 μM Isx 24 h): two-fold or less
Insulin gene reporter activity increase by either BETA2 or MafA in the presence of Isx ([4]; 20 μM Isx 24 h (FIG. 3A, FIG. 7)): ≥ 4 fold
HDAC activity in MIN6 cells [5]: not affected
insulin content ([6]; Isx 24 or 48 h (FIG. 2D)): relatively small increase
Glucose-stimulated insulin secretion (GSIS) increase ([6]; Isx pretreatment 48 h (FIG. 2C)): ~4 fold
increase of stimulation of insulin secretion by glucose, amino acids and exendin-4, individually and in combination ([6]; Isx pretreatment 48 h (FIG. 2E)): 2 to 5 fold
HAT activity increase ([7]; nuclear extracts from Isx-treated MIN6 cells, 24 h (FIG. 4C)): ~2 fold
HAT activity in nuclear extracts of MIN6 cells expressing p300 ([7]; over and above that from expressed p300): increased
